Measured values reported in patent US10406120B2, “Methods and compositions for treating kidney disorders” (Golden Biotechnology Corporation, priority 2013, dated 2019).

What was measured:
apoptosis in the kidney = assay: AcP-IgAN model: apoptosis in the kidney (TUNEL); assay type: in vivo, B cell-deficient mice
Method: (§1) B cell-deficient mice (B6.129S2-Igh-6tm1Cgn/J) were obtained from the Academia Sinica (Professor John T. Kung, Institute of Molecular Biology), and maintained at the animal center of the National Defense Medical Center, Taipei, Taiwan. AcP-IgAN was induced in the mice by daily injection of purified IgA anti-phosphorylcholine antibodies and pneumococcal C-polysaccharide (PnC) as described previously (Chao, et al., Kidney Int. 70:283-297; 2006). All animal experiments were performed with the approval of the Institutional Animal Care and Use Committee of The National Defense Medical Center, Taiwan, and were consistent with the NIH Guide for the Care and Use of Laboratory Animals.
For the detection of apoptosis, terminal deoxynucleotidyl transferase-mediated dUTP nick-end labeling (TUNEL) was employed. Formalin-fixed and paraffin-embedded tissue sections were stained with ApopTag plus peroxidase in situ apoptosis detection kit (Chemicon, CA) according to the manufacturer's instructions. For scoring, the cortical renal area (including glomerular and peri-glomerular areas) were examined and expressed as cells/glomerular cross-section.

Nrf2 = assay: FSGS model: Western blot of nuclear Nrf2 in kidney; assay type: in vivo, BALB/c mice; conditions: FSGS mice, day 14 to day 21, vs control FSGS mice or normal controls
Method: Experiments described herein were performed on 8-week-old female BALB/c mice. The FSGS mice were injected intravenously with a single dose of adriamycin (0.1 mg/10 g body weight). The mice were given Compound 1 six hours before adriamycin injection by gavage daily till sacrifice. BALB/c mice intraperitoneal injected with normal saline were used as normal controls, while ASLN mice given vehicle (corn oil) by gavage were used as disease controls. Mice were killed at day 7, 14, or 21 after disease induction, and spleen, renal cortical tissue, and blood samples collected and stored appropriately until analysis. All animal experiments were performed with the ethical approval of the Institutional Animal Care and Use Committee of The National Defense Medical Center, Taiwan and performed according to the ethical rules in the NIH Guide for the Care and Use of Laboratory Animals.
The preparation of cytoplasmic and nuclear proteins of renal tissues was extracted using the Nuclear Extract Kit (Active Motif, Tokyo, Japan) according to the manufacturer's instructions. Target proteins in the cytoplasmic and/or nuclear fractions of kidney tissue were measured by Western blot analysis using rabbit antibodies against mouse Nrf2, or p47^phox (Santa Cruz). […]

mononuclear leukocytes = assay: AcP-IgAN model: leukocyte infiltration in the kidney (IF/IHC); assay type: in vivo, B cell-deficient mice; conditions: AcP-IgAN mice
Method: as §1
For IHC, formalin fixed and paraffin embedded tissue sections or frozen sections were incubated with against IL-6 (R&D Systems, MN), MCP-1 (Santa Cruz, Calif.), F4/80 (monocytes/macrophages; Serotec, N.C.), collagen IV (Southern Biotech, AL), TGF-β1 (Santa Cruz), phopsho-NFκB p65 (Cell Signaling, MA), CD3 (pan-T cell; Serotec), CD4 (T helper cell; BioLegend, CA), CD8 (cytotoxic T cell), CD11b (macrophages/neutrophils), or CD11c (dendritic cells) (BD Biosciences, CA) antibodies. The FITC-conjugated, Alexa Fluor 488-conjugated (Invitrogen, CA) or horseradish peroxidase (HRP) conjugated secondary antibodies (DAKO, Denmark) were then applied to the sections. […]

MCP-1 = assay: AcP-IgAN model: renal MCP-1 mRNA and protein; assay type: in vivo, B cell-deficient mice; conditions: AcP-IgAN mice
Method: as §1
For IHC, formalin fixed and paraffin embedded tissue sections or frozen sections were incubated with against IL-6 (R&D Systems, MN), MCP-1 (Santa Cruz, Calif.), F4/80 (monocytes/macrophages; Serotec, N.C.), collagen IV (Southern Biotech, AL), TGF-β1 (Santa Cruz), phopsho-NFκB p65 (Cell Signaling, MA), CD3 (pan-T cell; Serotec), CD4 (T helper cell; BioLegend, CA), CD8 (cytotoxic T cell), CD11b (macrophages/neutrophils), or CD11c (dendritic cells) (BD Biosciences, CA) antibodies. The FITC-conjugated, Alexa Fluor 488-conjugated (Invitrogen, CA) or horseradish peroxidase (HRP) conjugated secondary antibodies (DAKO, Denmark) were then applied to the sections. Hematoxylin or 4′,6-diamidino-2-phenylindole (DAKO) was used in the counter staining for nuclei.
Total cortical kidney RNA was extracted with TriZOL reagents (Invitrogen) from cortical tissue of the kidney. For first-strand cDNA synthesis, 1.5 μg of total RNA was used in a single-round reverse transcriptase reaction. The reaction mixture consisted of 0.9 μl of Oligo (dT) 12 to 18 primer, 1.0 mM deoxyribonucleotide triphosphate (dNTP), 1 μl first strand buffer, 0.4 mM dithiothreitol, 80 U of RNaseout recombinant ribonuclease inhibitor, and 300 U of superscript II RNase H (Invitrogen). Real-time PCR was performed on an ABI Prism 7700 Sequence Detection System (Applied Biosystems, CA). […]

[1] = system: glutathione peroxidase (GPx); assay: AcP-IgAN model: renal GPx; assay type: in vivo, B cell-deficient mice; conditions: AcP-IgAN mice
Method: as §1
Nuclear proteins were extracted using a nuclear extract kit (Active Motif, Japan). Phospho-NF-κB p65 and nuclear factor-erythroid-2-related factor 2 (NrF2) were measured in renal tissue nuclear protein extracts using Trans-AM ELISA assay kits (Active Motif), according to the manufacturer's instructions. Renal cytosolic protein extracts using RIPA buffer (Cell signaling). Cytosolic glutathione peroxidase (GPx) (Cayman, Mich.) and cytosolic heme oxygenase-1 (HO-1) (Enzo Life Sciences, NY) were measured using commercial ELISA kits according to the manufacturer's instructions. Both were expressed relative to the protein concentration in the lysate.

[2] = AcP-IgAN model: urine protein and renal function (BUN, Cr); assay type: in vivo, B cell-deficient mice; conditions: AcP-IgAN mice
Method: as §1
(§2) Body weight of the mice was measured weekly. Urine samples were collected in metabolic cages weekly, and urine protein determined followed the know methods (Chao, et al., Kidney Int. 70:283-297; 2006). Serum samples were collected at day 3 and day 28 to measure serum levels of blood urea nitrogen (BUN) and creatinine (Cr).

[3] = AcP-IgAN model: body weight and general condition; assay type: in vivo, B cell-deficient mice; conditions: AcP-IgAN mice, 50 mg/kg, up to day 28
Method: as §1, §2

[4] = day 28, vs control AcP-IgAN mice
[5] = day 3, between control AcP-IgAN, AcP-IgAN+Antroq and normal control mice

## COC1=C(OC)[C@H](O)[C@H](C/C=C(\C)CC/C=C(\C)CCC=C(C)C)[C@@H](C)C1=O [Compound 1, Antroquinonol]
Apoptosis in the kidney; AcP-IgAN mice, day 28, vs control AcP-IgAN mice
  apoptosis in the kidney (TUNEL), increase: greatly inhibited
Apoptosis in the kidney; all the mice examined, day 3
  apoptosis in the kidney (TUNEL): inconspicuous apoptosis
Nrf2
  Nrf2 translocation into nuclei: strongly augmented
Mononuclear leukocytes; day 3
  infiltration of pan-T cells, neutrophils and monocytes/macrophages in the kidney: no detectable signals
Mononuclear leukocytes; day 28, vs AcP-IgAN mice
  infiltration of inflammatory cells (CD3^+, CD4^+, CD8^+, CD11c+, F4/80+, CD11b+) in the kidney: significantly decreased infiltration
MCP-1; day 3
  renal expression levels of mRNA and protein of MCP-1: no such effect
MCP-1; [4]
  renal expression levels of mRNA of MCP-1: significantly reduced
  renal expression levels of protein of MCP-1: significantly reduced
[1]; day 3, vs control AcP-IgAN mice
  GPx expression levels in renal tissues: no difference
[1]; [4]
  GPx expression levels in renal tissues: significantly higher
[2]; 50 mg/kg, day 7 to day 28, vs control AcP-IgAN mice (vehicle)
  urine protein levels: greatly suppressed
[2]; compared to normal controls
  proteinuria: mild proteinuria
[2]; [5]
  serum levels of BUN: no significant difference
  serum levels of Cr: no significant difference
[2]; [4]
  serum levels of BUN: much better renal function
  serum levels of creatinine: much better renal function
[3]
  activity, hair loss, appetite: normal activity and no evidence of hair loss or appetite change
  growth (body weight recorded every week): no different from that of normal controls
